Reference: patent publication US11090308B2, “Methods of treating liver disorders or lipid disorders with a THR-beta agonist” (Madrigal Pharmaceuticals, Inc., priority 2016, dated 2021)

Key:
Assay type in all cases: in vitro ADME
[1] = target: CYP2D6 (Homo sapiens, UniProt P10635); assay: In vitro Cytochrome P-450 enzyme assay, CYP2D6
Text: (§1) The following studies have been conducted: (a) in vitro drug protein binding, transporter (organic anion transporting polypeptide [OATP], P-glycoprotein [P-gp], breast cancer-related protein [BCRP], and multiple drug resistance protein 1 [MDR1]), and cytochrome P-450 enzyme assays to investigate absorption, distribution, and excretion; (b) in vivo MGL-3196 rat and dog oral PK and bioavailability studies; (c) in vivo ^14C-MGL-3196 rat and dog oral pharmacokinetics, absorption, excretion, and tissue distribution by quantitative whole-body autoradiography (QWBA) studies; and (d) liver disposition of MGL-3196 using an in vitro sandwiched hepatocyte model system (B-CLEAR® technology) in dog (SCDH) and human (SCHH) hepatocytes.

[2] = target: T1, CYP2C8 (Homo sapiens, UniProt P10632); assay: In vitro Cytochrome P-450 enzyme assay, CYP2C8; details: for IC50: read-out: Inhibitor of: CYP2C8, IC50
T1 sequence (P10632 1-490): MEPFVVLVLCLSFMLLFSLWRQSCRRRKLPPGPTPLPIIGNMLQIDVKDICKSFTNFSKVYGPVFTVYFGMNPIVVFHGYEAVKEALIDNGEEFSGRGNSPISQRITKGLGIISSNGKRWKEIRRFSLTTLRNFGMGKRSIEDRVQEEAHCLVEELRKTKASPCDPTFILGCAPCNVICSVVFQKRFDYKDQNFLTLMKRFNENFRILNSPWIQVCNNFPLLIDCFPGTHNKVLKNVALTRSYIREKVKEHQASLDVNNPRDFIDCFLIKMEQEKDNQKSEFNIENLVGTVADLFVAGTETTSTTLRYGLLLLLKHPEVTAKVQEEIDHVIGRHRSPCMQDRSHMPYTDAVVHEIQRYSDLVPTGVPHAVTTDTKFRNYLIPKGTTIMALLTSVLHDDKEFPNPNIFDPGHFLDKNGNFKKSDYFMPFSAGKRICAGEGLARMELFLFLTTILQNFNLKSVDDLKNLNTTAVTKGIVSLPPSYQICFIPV
Text: as §1

[3] = tested on: sandwich-cultured human hepatocytes (SCHH); assay: Hepatobiliary disposition in sandwich-cultured human hepatocytes (SCHH)
Method: Qualyst Transporter Solutions evaluated the hepatic uptake of MGL-3196 in sandwich cultured human hypetocytes (SCHH). MGL-3196 was evaluated at 30 μM after a 20-minute incubation (based on a pilot uptake study) in the presence of a physiologic concentration of bovine serum albumin (BSA, ˜4%). The experiment was performed in a 24-well format using 1 lot of Transporter Certified™ human hepatocytes (N=1). Each test condition was performed in 3 wells to provide triplicate data. Sample preparation and LC/MS/MS analysis of cell lysate to determine concentrations of MGL-3196 was performed at QTS according to analytical assay methodology and analytical standards supplied by Madrigal Pharmaceuticals. The following parameter for test article were determined: (a) total accumulation (hepatic uptake), (b) cellular accumulation (intracellular concentration), (c) biliary excretion index (hepatic efflux), (d) Kp value (hepatic accumulation), (e) in vitro biliary clearance (predictive of in vivo biliary clearance), and (f) media accumulation (post incubation supernatant).
Parameters determined: • Bile Accumulation=Total Accumulationplus(+)Buffer−Cellular AccumulationMinus(−)Buffer
[formula] • AUC=(Incubation Time)*(Analyte ConcentrationMedia) • In vitro biliary clearance:
[formula] • (Kp ratio reflects the extent of MGL-3196 accumulation in hepatocyte to the total MGL-3196 concentration in the buffer, outside of the hepatocyte).
(§2) MGL-3196 and its metabolite, MGL-3196-M1 (M1), were evaluated in sandwich-cultured human hepatocytes (SCHH) to evaluate the effects of temperature and concentration on total accumulation. Incubations were performed in presence of 4% bovine serum albumin (BSA) for 20 minutes at 37° C. and 4° C. across multiple concentrations (3, 10, 30, and 100 μM). Following the hepatic accumulation study, a species comparison of the hepatobiliary disposition of MGL-3196 (30 μM) and its metabolite, M1, was evaluated in SCHH and sandwich-cultured dog hepatocytes (SCDH) in the presence of 4% BSA.

[4] = tested on: sandwich-cultured human hepatocytes (SCHH); assay: Effects of temperature and concentration on total accumulation in SCHH
Method: as §2

[5] = target: CYP2C19 (Homo sapiens, UniProt P33261); assay: In vitro Cytochrome P-450 enzyme assay, CYP2C19
[6] = target: T2, CYP2B6 (Homo sapiens, UniProt P20813); assay: In vitro Cytochrome P-450 enzyme assay, CYP2B6
T2 sequence (P20813 1-491): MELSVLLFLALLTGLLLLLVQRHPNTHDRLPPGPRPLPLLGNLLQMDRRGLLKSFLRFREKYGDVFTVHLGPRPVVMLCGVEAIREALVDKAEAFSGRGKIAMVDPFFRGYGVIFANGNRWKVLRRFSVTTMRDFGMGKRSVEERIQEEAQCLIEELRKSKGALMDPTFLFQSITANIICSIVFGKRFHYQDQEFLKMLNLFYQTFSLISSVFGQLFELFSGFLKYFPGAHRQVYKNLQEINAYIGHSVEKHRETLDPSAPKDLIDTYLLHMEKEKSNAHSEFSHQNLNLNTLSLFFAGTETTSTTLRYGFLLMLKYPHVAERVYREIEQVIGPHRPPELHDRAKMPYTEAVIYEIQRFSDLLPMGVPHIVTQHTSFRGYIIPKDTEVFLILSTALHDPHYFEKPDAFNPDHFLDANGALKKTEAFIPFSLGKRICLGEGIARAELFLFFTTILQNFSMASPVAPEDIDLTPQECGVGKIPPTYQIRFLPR
Text: as §1

[7] = 20 min exposure to MGL-3196 30 μM, 4% BSA

Sequence of CYP2D6 (P10635 whole entry): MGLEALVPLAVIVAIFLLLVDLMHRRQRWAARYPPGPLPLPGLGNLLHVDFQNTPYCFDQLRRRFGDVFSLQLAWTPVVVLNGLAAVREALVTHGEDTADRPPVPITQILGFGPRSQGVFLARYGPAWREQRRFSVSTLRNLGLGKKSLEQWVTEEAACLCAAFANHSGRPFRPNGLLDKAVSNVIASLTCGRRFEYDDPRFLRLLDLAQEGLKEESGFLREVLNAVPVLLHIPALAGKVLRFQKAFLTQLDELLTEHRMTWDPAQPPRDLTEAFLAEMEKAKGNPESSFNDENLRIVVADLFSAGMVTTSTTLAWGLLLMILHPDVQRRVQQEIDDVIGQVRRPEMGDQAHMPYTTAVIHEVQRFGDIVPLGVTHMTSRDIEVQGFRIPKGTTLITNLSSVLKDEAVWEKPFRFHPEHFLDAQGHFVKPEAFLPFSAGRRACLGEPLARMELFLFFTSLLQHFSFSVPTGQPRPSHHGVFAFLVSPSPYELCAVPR
Sequence of CYP2C19 (P33261 whole entry): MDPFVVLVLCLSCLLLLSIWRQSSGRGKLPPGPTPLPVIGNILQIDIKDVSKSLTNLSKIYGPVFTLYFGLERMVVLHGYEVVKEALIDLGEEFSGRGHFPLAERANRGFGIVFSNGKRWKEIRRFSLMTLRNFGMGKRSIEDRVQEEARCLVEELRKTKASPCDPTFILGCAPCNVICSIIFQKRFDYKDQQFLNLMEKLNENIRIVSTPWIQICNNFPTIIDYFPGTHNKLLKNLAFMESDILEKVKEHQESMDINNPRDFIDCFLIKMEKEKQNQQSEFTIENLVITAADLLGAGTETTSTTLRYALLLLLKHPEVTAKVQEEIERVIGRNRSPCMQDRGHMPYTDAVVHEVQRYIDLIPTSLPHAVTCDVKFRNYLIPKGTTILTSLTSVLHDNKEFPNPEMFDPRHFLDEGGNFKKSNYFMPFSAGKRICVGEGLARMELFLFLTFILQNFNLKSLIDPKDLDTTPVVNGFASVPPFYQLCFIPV

Row | SMILES | Inhibitor of: CYP2D6 [1] | Substrate for: CYP2C8 [2] | IC50 [2] | BEI (Biliary Excretion Index) [3, 7] | Bile Acc. [3, 7] | Cellular Acc. [3, 7] | ClBiliary (in vitro biliary clearance) [3, 7] | ICC (intracellular concentration) [3, 7] | Kp [3, 7] | Total Acc. [3, 7] | share of total accumulation (hepatocytes+bile) mediated by an active uptake process (temperature-dependent) ([4]; 37° C. vs 4° C., 20 minutes, 4% BSA, 3, 10, 30, 100 μM) | Inhibitor of: CYP2C19 [5] | Inhibitor of: CYP2B6 [6] | IC50 ([1]; read-out: Inhibitor of: CYP2D6, IC50) | PIS (post incubation supernatant, cell culture media) [3, 7] | accumulation as % of parent's total accumulation ([3]; MGL-3196 30 μM, 20 minutes) | reduction of accumulation in 4° C. incubations ([4]; across all MGL-3196 exposure levels examined) | IC50 ([5]; range given jointly for CYP2B6, CYP2C9, CYP2C19, weak, read-out: Inhibitor of: CYP2C19, IC50) | IC50 ([6]; range given jointly for CYP2B6, CYP2C9, CYP2C19, weak, read-out: Inhibitor of: CYP2B6, IC50)
1 | CC(C)c1cc(Oc2c(Cl)cc(-n3nc(C#N)c(=O)[nH]c3=O)cc2Cl)n[nH]c1=O [MGL-3196, 2-(3,5-dichloro-4-((5-isopropyl-6-oxo-1,6-dihydropyridazin-3-yl)oxy)phenyl)-3,5-dioxo-2,3,4,5-tetrahydro-1,2,4-triazine-6-carbonitrile] | not an inhibitor | CYP2C8; | 0.9 µM | 33.7% | 293 pmol/mg | 570 pmol/mg | 1.45 mL/min/kg | 74.2 µM | 2.47 Ratio | 863 pmol/mg | ≥ 72.8% | not an inhibitor | not an inhibitor | – | – | – | – | – | –
2 | CC(CO)c1cc(Oc2c(Cl)cc(-n3nc(C#N)c(=O)[nH]c3=O)cc2Cl)n[nH]c1=O (centres unmarked) [MGL-3623] | – | CYP 2C8 | 6.1 µM | 30.4% | 1.78 pmol/mg | 4.01 pmol/mg | – | 0.521 µM | – | 5.79 pmol/mg | – | – | – | > 50 µM | BLQ | 0.67% | ≥ 65% | 24 to 35 µM | 24 to 35 µM
